# Patent US20070026042A1, “System for treating aneurysmal disease” (priority 2005, published 2007)
# What was measured:
# [1] = test system: infrarenal abdominal aorta; assay: Elastase-induced abdominal aortic aneurysm model in rats; assay type: in vivo, Wistar rats; settings: for relative efficacy in suppressing aneurysmal dilatation compared to Dox at the same dose / inhibition of aortic dilatation induced by elastase perfusion: 15 mg/kg/day; for inhibition of aortic dilatation induced by elastase perfusion: vs saline, Student's t-test
# Source text: Male Wistar rats (350-400 g) were subjected to perfusion of an isolated segment of the infrarenal abdominal aorta with 50 units of porcine pancreatic elastase, using the method described by Anidjar. et al. (Anidjar, S, Salzmann, J L, Generic, D, Lagneau, P, Camilleri, J P, and Michel, J B, “Elastase induced experimental aneurysms in rats,” Circulation 82:973-981 (1990); Halpern et al. (Halpern, V J. Liao, Nackman, G B, Gandhi, R H, Irizarry, E, Scholes, J V, Ramey, W G, and Tilson, M D, “The elastase infusion model of experimental aortic aneurysms: Synchrony of induction of endogenous protinases with matrix destruction and inflammatory cell response,” J. Vasc. Surg. […] Surg 23:336-346 (1996)). This method is an accepted model for experimental induction of abdominal aortic aneurysms. The animals (n=6 rats in each group) were then treated with twice-daily subcutaneous injections of either saline vehicle (control), or various doses of doxycycline (Dox) or one of four different, non-antibiotic, chemically-modified tetracyclines (CMTs; CollaGenex, Inc., Newtown, Pa.). Aortic diameter (AD) was measured with microcalipers before and after elastase perfusion, and just prior to sacrifice on day 7. Abdominal aortic aneurysms were defined as an increase in final AD to at least twice that measured before perfusion (≥ 100% increase). Aortic tissues from two animals in each group were perfusion-fixed with 10% neutral buffered formalin, embedded in paraffin, and stained with Verhoeff-van Geisen (WG) for elastin. Tissues from the remaining animals were extracted, normalized to total protein, and analyzed by gelatin substrate zymography as described (Thompson et al. 1995; Halpern et al. 1994; Petrinec 1996).
# For saline-treated control animals, mean AD increased by 125.±.18%, and 5 of the 6 (83%) of the animals had abdominal aortic aneurysms as defined.
# [2] = Cell viability assay (cytotoxicity); assay type: cell-based
# Source text: (§1) The multiple curves represent various concentrations of topotecan ranging from zero to three hundred nanomolar concentrations.
# (§2) The multiple curves represent various concentrations of etoposide ranging from zero to eight hundred nanomolar concentrations.
# [3] = test system: human coronary artery smooth muscle cells; assay: Anti-proliferative activity in cultured human coronary artery smooth muscle cells; assay type: cell-based
# Source text: The multiple curves represent various concentrations of mycophenolic acid ranging from zero to one thousand nanomolar concentrations.
# FIG. […]
# The multiple curves represent various concentrations of cladribine ranging from zero to nine hundred nanomolar concentrations.
# as §1, §2
# The multiple curves represent various concentrations of Panzem® ranging from zero to 100 micromolar concentrations.
# [4] = test system: tumor cell lines; settings: Woo et al., J. Med Chem 2002; cited from earlier work
# [5] = Liquid formulations of sirolimus and analogs: drug concentration by liquid chromatography, visual observation; assay type: physicochemical; settings: Vitamin E TPGS, water, ethanol less than two percent
# Method: Certain excipients, such as Vitamin E TPGS and BHT may be utilized to enhance the storage stability of sirolimus compounds through their anti-oxidation properties.
# The concentrations of each constituent were determined by liquid chromatography and are presented as weight by volume figures.
# In another exemplary embodiment, the liquid formulation of sirolimus comprises water and ethanol as co-solvents and Vitamin E TPGS as the excipient. The liquid formulation was created utilizing the following process. Two hundred milligrams of sirolimus and two grams of ethanol were added to a pre-weighed twenty milliliter scintillation vial. The vial was vortexed and sonicated until the sirolimus was completely dissolved. Approximately six hundred milligrams of Vitamin E TPGS was then added to the solution of ethanol and sirolimus. The vial was vortexed again until a clear yellowish solution was obtained. Nitrogen gas was then used to reduce the amount of ethanol in the vial to approximately two hundred twenty-nine milligrams. In a separate vial, three hundred milligrams of Vitamin E TPGS was dissolved in eleven milliliters of purified water while undergoing vortexing. The Vitamin E TPGS and water solution was then added to the first vial containing the sirolimus, Vitamin E TPGS and ethanol. The first vial was then vortexed vigorously and continuously for three minutes. […]
# [6] = test system: human coronary artery smooth muscle cell; assay: MTS cytotoxicity assay; assay type: cell-based; settings: 6.6 nanomolar to 30,000.00 nanomolar, FIG. 69
# Source text: Typically, a control is utilized to determine baseline toxicity.
# [7] = non-synchronized cells, two percent fetal bovine serum
# [8] = synchronized cells, two percent fetal bovine serum
compound,measurement,setting,value
4-dedimethylamino-12a-deoxytetracycline [CMT-7],relative efficacy in suppressing aneurysmal dilatation compared to Dox at the same dose,[1],92%
same,inhibition of aortic dilatation induced by elastase perfusion,[1],statistically significant
"NC(=O)C1=C(O)C[C@@H]2C[C@@H]3Cc4cccc(O)c4C(=O)C3=C(O)[C@]2(O)C1=O [CMT-3, 6-demethyl-6-deoxy 4-dedimethylaminotetracycline]",relative efficacy in suppressing aneurysmal dilatation compared to Dox at the same dose,[1],92%
same,inhibition of aortic dilatation induced by elastase perfusion,[1],statistically significant
COc1cc([C@@H]2c3cc4c(cc3[C@@H](O[C@@H]3O[C@@H]5CO[C@@H](C)O[C@H]5[C@H](O)[C@H]3O)[C@H]3COC(=O)[C@H]23)OCO4)cc(OC)c1O [etoposide],cytotoxicity in cell viability assay,[2]; concentrations up to ten micromolar,non-cytotoxic
same,effect of addition to rapamycin-treated cells on the anti-proliferative rapamycin dose response curve,[3]; [7],leftward and upward shift
CC[C@@]1(O)C(=O)OCc2c1cc1n(c2=O)Cc2cc3c(CN(C)C)c(O)ccc3nc2-1 [topotecan],cytotoxicity in cell viability assay,[2]; concentrations up to one micromolar,non-cytotoxic
same,effect of addition to rapamycin-treated cells on the anti-proliferative rapamycin dose response curve,[3]; [8],leftward and upward shift
CC(/C=C/C(=O)NO)=C\[C@@H](C)C(=O)c1ccc(N(C)C)cc1 [trichostatin A],IC50,[3]; in vitro cell culture studies,~6 nM
same,inhibition of human coronary artery smooth muscle cell proliferation,"[3]; in vitro cell culture studies, FIG. 51",completely inhibit
same,anti-proliferative IC50's,[4],low nM range
CO[C@H]1C[C@@H]2CC[C@@H](C)[C@@](O)(O2)C(=O)C(=O)N2CCCC[C@H]2C(=O)O[C@H]([C@H](C)C[C@@H]2CC[C@@H](OC(=O)C(C)(CO)CO)[C@H](OC)C2)CC(=O)[C@H](C)/C=C(\C)[C@@H](O)[C@@H](OC)C(=O)[C@H](C)C[C@H](C)/C=C/C=C/C=C/1C [CCI-779],concentration of CCI-779 in the final solution (HPLC),[5],15000 µg/mL
COc1c(C)c2c(c(O)c1C/C=C(\C)CCC(=O)O)C(=O)OC2 [mycophenolic acid],effect of addition to rapamycin-treated cells on the anti-proliferative rapamycin dose response curve,[3]; [7],leftward and upward shift
"CC1(O)c2c(Cl)ccc(O)c2C(=O)C2=C(O)C3(O)C(=O)C(C(N)=O)=C(O)CC3CC21 (stereo not drawn) [CMT-4, 4-dedimethylamino-7-chlorotetra-cycline]",relative efficacy in suppressing aneurysmal dilatation compared to Dox at the same dose,[1],75%
same,inhibition of aortic dilatation induced by elastase perfusion,[1],did not reach statistical significance
"C[C@H]1c2cccc(O)c2C(O)=C2C(=O)[C@]3(O)C(O)=C(C(N)=O)C(=O)C[C@@H]3[C@@H](O)[C@@H]21 [CMT-8, 6-α-deoxy-5-hydroxy-4-dedimethylaminotetracycline]",relative efficacy in suppressing aneurysmal dilatation compared to Dox at the same dose,[1],105%
same,inhibition of aortic dilatation induced by elastase perfusion,[1],statistically significant
"Nc1nc(Cl)nc2c1ncn2[C@H]1C[C@H](O)[C@@H](CO)O1 [Cladribine, 2-chlorodeoxyadenosine]",inhibition of human coronary artery smooth muscle cell proliferation,"[3]; non-synchronized cells stimulated with two percent fetal bovine serum, FIG. 58",completely inhibits
same,effect of addition to rapamycin-treated cells on the anti-proliferative rapamycin dose response curve,[3]; [7],leftward and upward shift
"C[C@H]1c2cccc(O)c2C(=O)C2=C(O)[C@]3(O)C(=O)C(C(N)=O)=C(O)[C@@H](N(C)C)[C@@H]3[C@@H](O)[C@@H]21 [Dox, doxycycline]",aortic dilatation (mean increase in aortic diameter),"[1]; 60 mg/kg/day, twice-daily subcutaneous injections, day 7, saline control 125.±.18%",61.±.7%
same,dose of maximal inhibition of aortic dilatation,"[1]; dose-dependent effect, FIG. 76",about 12.5 mg/kg/day
"COc1cc2c(cc1O)CC[C@@H]1[C@@H]2CC[C@]2(C)[C@@H](O)CC[C@@H]12 [Panzem®, 2-methoxyestradiol]",cell survival in MTS assay,[6],do not reduce human coronary artery smooth muscle cell survival
same,effect of addition to rapamycin-treated cells on the anti-proliferative rapamycin dose response curve,[3]; [8],increases the percent of inhibition of rapamycin alone
same,inhibition of human coronary artery smooth muscle cell proliferation in vitro,"[3]; synchronized cells, two percent fetal bovine serum, FIG. 66",extremely effective inhibitor
